Source: patent publication US20020169154A1, “Novel methods and compositions involving trk tyrosine kinase inhibitors and antineoplastic agents” (Cephalon, Inc., priority 2001, published 2002)

Test system: human pancreatic ductal adenocarcinoma (PDAC) xenografts (Colo-357)
Test: Survival of nude mice with orthotopically implanted human PDAC xenografts
Format: in vivo
Conditions: orthotopic PDAC, female nu/nu mice, (I-a-ii) 10 mg/kg/dose s.c. BID five days a week, gemcitabine 100 mg/kg/dose i.p. twice per week, combination: both regimens; for mean survival time (days of dosing to death): vehicle 58, untreated 55 days
Protocol: The compound of formula (I-a-ii) was formulated at 3.44 mg/mil in a vehicle of 40% polyethylene glycol (PEG) 1000 (Spectrum, Los Angeles, Calif.), 10% povidone C30 (ISP, Boudbrook, N.J.), and 2% benzyl alcohol (Specturm, Los Angeles, Calif.) in sterile injectable water.
Gemcitabine HCl (Gemzar) was obtained from Eli Lilly and Co. (Indianapolis, Ind.) as a sterile, lyophilized powder formulated with mannitol and sodium acetate, and resuspended to a concentration of 1.0 mg/ml with 0.9% sodium chloride, pH 7.0. Solutions of gemcitabine were freshly prepared for each day of dosing and filter sterilized prior to administration.
Human pancreatic ductal adenocarcinoma (PDAC) xenografts were obtained from the left flanks of nude mice that had been injected with 2×10^6 Colo-357 human pancreatic carcinoma cells. Colo-357 human PDAC cells were obtained from the American Type Culture Collection (ATCC) and grown to subconfluency in Minimal Essential Medium supplemented with 10% fetal bovine serum and 1% penicillin/streptomycin. Cells were MAP and mycoplasma tested by a commercial laboratory (Bio Reliance Corp.) prior to use. Xenograft tumors were harvested and carefully sectioned into 2×2 mm^2 fragments in a laminar flow hood using sterile technique (PNAS 89:5645-49, 1992; Cancer Res. 55:4670-75, 1995). Netrotic areas of the tumors were removed and discarded. The 2×2 mm tumor tissue fragments were then placed in sterile, undiluted Matrigel and ice for 60 minutes prior to implantation. (Cancer Res. 55:4670-75, 1995).
At approximately 8 weeks of age female nu/nu mice were anesthetized with a mixture of ketamine/xylazine given by IM injection. Following establishment of satisfactory anesthesia, a left lateral laparotomy was performed using aseptic technique, and the spleen and pancreas exteriorized by gentle traction. Two of the 2×2 mm^2 tumor xenograft fragments prepared as described above were anchored to the posterior surface of the splenic portion of the pancreas of each mouse with a 6-0 Prolene suture (Cancer Res. 56:5713-19, 1996; J. Surg. Oncol. 40:261-265, 1989). The abdominal incision was closed with 6-0 Vicryl and the skin closed with skin staples. Mice were observed daily for any signs of infection of the incision line and, following removal of the skin staples, had abdominal palpation performed twice weekly. Establishment of the orthotopic phenotype with diffuse peritoneal spread was accomplished through three serial passes of tumor tissue.
Seven days following surgical implantation of serially passed PDAC tumor tissue, mice were randomized into five different treatment groups. Untreated mice (n=5) received no vehicle or drug treatments. […]

SMILES | survival relative to controls or monotherapy (Kaplan-Meier-Wilcoxon), in words | mean survival time (days of dosing to death) [days]
Nc1ccn([C@@H]2O[C@H](CO)[C@@H](O)C2(F)F)c(=O)n1 [gemcitabine, 2′,2′-difluorodeoxycytidine] | prolonged survival relative to the administration of controls | 97
C[C@@]12OC(C[C@@]1(O)CO)n1c3ccccc3c3c4c(c5c6ccccc6n2c5c31)CNC4=O [formula (I-a-ii)] | trend toward improved overall survival relative to administration of controls, but the trend was not significant | 63
